{
  "source": "patent US9249153B2",
  "about": "“Pharmaceutical composition for treating aging-associated diseases, containing progerin expression inhibitor as active ingredient, and screening method of said progerin expression inhibitor” (PUSAN NATIONAL UNIVERSITY INDUSTRY-UNIVERSITY COOPERATION …, priority 2011, dated 2016)",
  "key": {"HGPS cells [1]": {"test_system": "HGPS cells", "test": "cell counting, HGPS cells", "assay_type": "cell-based, human", "protocol": "(§1) For cell counting, cells were harvested from media, and stained for 10 min at room temperature with Trypan blue. Viable cells were counted using a hemocytometer."}, "normal fibroblasts": {"test_system": "normal fibroblasts", "test": "cell counting, normal fibroblasts", "assay_type": "cell-based, human", "protocol": "as §1"}, "progerin-Lamin A binding": {"biological_target": "T1, progerin-Lamin A binding (Homo sapiens, UniProt P02545)", "T1 sequence (P02545 515-614 isoform P02545-6 limits assumed)": "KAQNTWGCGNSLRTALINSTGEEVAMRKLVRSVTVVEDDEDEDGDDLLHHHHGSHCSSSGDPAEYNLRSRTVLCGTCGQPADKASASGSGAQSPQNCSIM", "test": "ELISA-based screening of LMN A-Prg binding inhibitors", "details": "0.1 mM final concentration", "protocol": "To isolate a Lamin A-Prg binding inhibitor, ELISA analysis was carried out. GST-progerin-C or LMN A-His was fixed with 0.5% paraformaldehyde on 96-well plates. After drying and washing steps, lysates of HEK 293 cells transfected with GFP-Lamin A, GST-Lamin A-C, or GST-progerin-C were incubated for 1 hr with a 0.1 mM (final concentration) binding inhibitor of the present invention. The 96-well plates were washed with TBST, followed by reaction with an anti-GFP-Ab (1:10,000, 45 min), an anti-GST-Ab (1:10,000, 45 min) and an anti-mouse-IgG-HRP (1:50,000, 30 min). The plates were washed twice, and incubated with a TMB solution (Calbiochem) and then with a stop solution (1 N H2SO4). Absorbance was read on an ELISA reader.\nIf progerin-induced senescence is mediated by binding LMN A, an inhibitor against binding between LMN A and progerin would block the progerin-induced pathological features. […] In this regard, an ELISA-based screening system was established. Briefly, progerin immobilized in 96-well plates was incubated with candidates from a chemical library, together with GFP-LMN A. Subsequently, association between progerin and the GFP protein was monitored in the presence of the inhibitor candidates (FIG. 15A). From the chemical library, four effective different compounds (JH-0307809; JH1, JH-02051109; JH13, JH-03070708; JH4, and LG-02-089-23; LG-02) were selected (FIGS. 15B and 16B), and analyzed by the monitoring (FIG. 16A). […] Their cytotoxicity was evaluated by MTT assay (FIGS. 15B and 16C)."}, "[2]": {"test_system": "association between LMN A and LMN B"}, "LMN A-progerin binding": {"biological_target": "LMN A-progerin binding (Homo sapiens, UniProt P02545)", "details": "in vitro binding assay"}, "HGPS cells [3]": {"test_system": "HGPS cells", "test": "nuclear LMN A/C staining in two kinds of HGPS cells", "assay_type": "cell-based, human", "details": "for nuclear deformation: two kinds of HGPS cells, incubation for 24 hrs"}, "[4]": {"biological_target": "self association of LMN A (Homo sapiens, UniProt P02545)", "sequence (P02545 whole entry)": "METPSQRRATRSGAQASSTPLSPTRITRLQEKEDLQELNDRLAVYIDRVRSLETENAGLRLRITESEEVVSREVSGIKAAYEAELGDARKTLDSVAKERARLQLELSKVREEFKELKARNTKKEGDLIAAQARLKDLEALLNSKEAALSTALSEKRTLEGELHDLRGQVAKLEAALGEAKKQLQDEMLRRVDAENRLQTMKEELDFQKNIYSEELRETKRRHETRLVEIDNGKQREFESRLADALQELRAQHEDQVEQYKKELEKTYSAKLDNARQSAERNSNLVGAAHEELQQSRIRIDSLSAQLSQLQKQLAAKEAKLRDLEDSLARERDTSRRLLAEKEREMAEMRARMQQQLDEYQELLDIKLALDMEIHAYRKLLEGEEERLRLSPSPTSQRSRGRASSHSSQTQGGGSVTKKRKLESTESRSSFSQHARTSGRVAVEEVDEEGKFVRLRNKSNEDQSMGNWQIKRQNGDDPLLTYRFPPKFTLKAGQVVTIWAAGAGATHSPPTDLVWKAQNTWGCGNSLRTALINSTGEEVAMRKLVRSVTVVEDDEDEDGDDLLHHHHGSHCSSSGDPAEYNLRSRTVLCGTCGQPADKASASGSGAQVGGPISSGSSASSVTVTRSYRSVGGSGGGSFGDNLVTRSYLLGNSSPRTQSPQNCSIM"}, "HGPS and normal cells": {"test_system": "HGPS and normal cells", "test": "senescence-specific β-galactosidase staining (SA-β-Gal)", "assay_type": "cell-based, human", "protocol": "For senescence-specific acidic-β-galactosidase activity staining, cells were washed once with PBS (pH 7.2) and fixed with PBS containing 0.5% glutaraldehyde. After being washed with PBS, the cells were stained overnight at 37° C. in an X-gal solution (Senescence β-Galactosidase Staining kit; Cell Signaling Technology)."}, "[5]": {"test_system": "transcriptional activity of p53", "test": "p21-luc luciferase assay", "assay_type": "cell-based", "details": "C2 cells, Adr treatment", "description": "To measure p21 activity, a p21-luc vector was co-transfected, together with si RNAs, to 293 cells for 24 hrs. The cells were washed and treated with adriamycin for 2 hrs. After they were washed with a wash buffer (Promega), the cells were lyzed in a lysis buffer. Luciferase activity was determined using a luminometer.\nTo confirm the re-activation of p53 in response to progerin knock down, the transcriptional activity of p53 was monitored using a p21-luc system."}, "p53 [6]": {"test_system": "p53", "test": "p53 induction in human fibroblasts (normal, HGPS, WS)", "assay_type": "cell-based", "protocol": "Whole cell lysates were prepared in RIPA buffer, and centrifuged at 14,000 rpm for 30 min. Twenty micrograms of cell extracts were separated by SDS-polyacrylamide gel electrophoresis and transferred onto a PVDF membrane. The membrane was incubated for 1 hr to overnight at 4° C. with an appropriated primary antibody, followed by reaction with a secondary antibody at room temperature for 1 hr. Peroxidase activity was detected by chemiluminescence with an ECL kit (Intron) as recommended by the manufacturer.\nThe molecular mechanism of the inhibitory activity of progerin against p53 was scrutinized and p53 responsibility to DNA damage was determined in human progeria cell lines (HGPS and WS). […] WS cells are known to be insensitive to DNA damage-induced p53 activation, and as previously observed, WS cells can also express progerin.\nKeeping in mind the fact that p53 is tightly regulated by the MDM2 pathway, the engagement of progerin with MDM2-mediated p53 suppression was also tested by treatment of Nutlin-3, which is a blocker between MDM2 and p53 and induces p53 expression. […] Considering the results, the elevated expression of progerin would be involved in DNA damage-induced p53 activation and MDM2-mediaeted p53 suppression."}, "Prg-LMN A binding": {"biological_target": "T2, Prg-LMN A binding (Homo sapiens, UniProt P02545)", "T2 sequence (P02545 515-614 isoform P02545-6 limits assumed)": "T1 sequence (P02545 515-614 isoform P02545-6 limits assumed)", "details": "GST-pull down, cell lysate", "description": "For the binding assay, GST-bead-fused Lamin A-C or progerin-C was incubated for 2 hrs at room temperature with a lysate of 293 cells transfected with the lamin A-N terminal region, or GFP-Lamin A, B or C. After washing twice with PBS and once with RIPA, the precipitates were collected, and subjected into SDS-PAGE and Western blot analysis with anti-GFP, His, and GST antibodies.\nThe candidates were examined for inhibitory activity against LMN A-progerin binding by an in vitro binding assay. […] Also, the compounds were analyzed for in vivo cellular effect by performing IP with a progerin antibody in HGPS fibroblasts after treatment with them for 24 hrs."}, "RCC": {"test_system": "RCC", "test": "nuclear irregularity of RCC (Example 2)", "assay_type": "cell-based, human", "protocol": "Based on our observation that the nuclear irregularity of RCC is caused by progerin and improved by FTI, the JH compounds were also examined for effect on RCC. Like FTI, the JH compounds ameliorated nuclear irregularity (FIG. 25). […] They were tested in vivo."}, "p53 [7]": {"test_system": "p53", "test": "p53 expression and DNA damage response in RCC cell lines", "assay_type": "cell-based, human", "details": "C2 and Caki-2 cell lines", "description": "In addition, p53 expression and responsibility for DNA damage in Caki-2 were determined after transfection with si-progerin."}},
  "data": [
    {"smiles": "CC1(C)Oc2cc3oc(=O)ccc3cc2C[C@@H]1OC(=O)C=Cc1cccnc1", "note": "[JH4, (7S)-(+)-3-(3-Pyridyl)-acrylic acid, 8,8-dimethyl-2-oxo-6,7-dihydro-2H,8H-pyrano[3,2-g]chromen-7-yl-ester]", "values": [
      {"measurement": "effect on LMN A mutants related with laminopathy", "setting": "LMN A mutants", "result": "did not show a favorable effect"},
      {"measurement": "cell proliferation", "setting": "HGPS cells [1]", "result": "promoted cell proliferation"},
      {"measurement": "cell proliferation", "setting": "normal fibroblasts", "result": "induced cell proliferation"},
      {"measurement": "inhibition of association between immobilized progerin and GFP-LMN A (screening)", "setting": "progerin-Lamin A binding", "result": "effective"},
      {"measurement": "disruption of association between LMN A and LMN B", "setting": "[2]", "result": "did not disrupt"},
      {"measurement": "inhibitory activity against LMN A-progerin binding", "setting": "LMN A-progerin binding", "result": "block LMN A-progerin binding"},
      {"measurement": "nuclear deformation, effect relative to the other compounds", "setting": "HGPS cells [3]; HGPS cells (FIG. 17D)", "result": "more obvious effect than the other compounds"},
      {"measurement": "nuclear deformation", "setting": "HGPS cells [3]", "result": "ameliorated the nuclear deformation"},
      {"measurement": "disruption of self association of LMN A", "setting": "[4]", "result": "did not disrupt"},
      {"measurement": "SA-β-gal", "setting": "HGPS and normal cells", "result": "could suppress SA-β-gal"}
    ]},
    {"smiles": "CC1(C)Oc2cc3oc(=O)ccc3cc2C[C@@H]1OC(=O)CCc1ccc(O)c(O)c1", "note": "[JH1, (7S)-(+)-3-(3,4-Dihydroxyphenyl)propionic acid, 8,8-dimethyl-2-oxo-6,7-dihydro-2H,8H-pyrano[3,2-g]chromen-7-yl-ester]", "values": [
      {"measurement": "inhibition of association between immobilized progerin and GFP-LMN A (screening)", "setting": "progerin-Lamin A binding", "result": "effective"},
      {"measurement": "nuclear deformation", "setting": "HGPS cells [3]", "result": "ameliorated the nuclear deformation"}
    ]},
    {"smiles": "CC1(C)Oc2ccc3oc(=O)ccc3c2C[C@@H]1OC(=O)C=Cc1ccc(O)c(O)c1", "note": "[LG-02, (6S)-(−)-3-(3,4-Dihydroxy-phenyl)-acrylic acid, 7,7-dimethyl-2-oxo-5,6-dihydro-7H-pyrano[3,2-f]chromen-6-yl-ester]", "values": [
      {"measurement": "inhibition of association between immobilized progerin and GFP-LMN A (screening)", "setting": "progerin-Lamin A binding", "result": "effective"}
    ]},
    {"smiles": "COc1cccc2c1C(=O)c1c(O)c3c(c(O)c1C2=O)C[C@@](O)(C(=O)CO)C[C@@H]3O[C@H]1C[C@H](N)[C@H](O)[C@H](C)O1", "note": "[Adr, adriamycin]", "values": [
      {"measurement": "p21-luc expression / activation", "setting": "[5]", "result": "did not increase p21-luc expression"},
      {"measurement": "p53 induction", "setting": "p53 [6]; HGPS cells", "result": "did not show the induction of p53"},
      {"measurement": "p53 induction", "setting": "p53 [6]; Werner syndrome (WS) cells", "result": "did not show the induction of p53"},
      {"measurement": "p53 induction", "setting": "p53 [6]; normal cells", "result": "obviously increased"}
    ]},
    {"smiles": "COC(=O)[C@H](CCSC)NC(=O)c1ccc(NC[C@@H](N)CS)cc1-c1ccccc1", "note": "[FTI]", "values": [
      {"measurement": "blocking of Prg-LMN A interaction", "setting": "Prg-LMN A binding", "result": "block the interaction, but slightly"},
      {"measurement": "nuclear irregularity of RCC", "setting": "RCC", "result": "improved"}
    ]},
    {"smiles": "COc1ccc(C2=N[C@@H](c3ccc(Cl)cc3)[C@@H](c3ccc(Cl)cc3)N2C(=O)N2CCNC(=O)C2)c(OC(C)C)c1", "note": "[Nutlin-3]", "values": [
      {"measurement": "p53 induction", "setting": "p53 [6]; HGPS cells", "result": "partial response"},
      {"measurement": "p53 induction", "setting": "p53 [6]; normal cells", "result": "induced p53 obviously"},
      {"measurement": "p53 induction", "setting": "p53 [7]", "result": "did not induce p53 obviously"}
    ]},
    {"smiles": "CC1(C)Oc2cc3oc(=O)ccc3cc2C[C@@H]1OC(=O)C=Cc1ccc(O)c(O)c1", "note": "[JH13, (7S)-(+)-3-(3,4-Dihydroxy-phenyl)-acrylic acid, 8,8-dimethyl-2-oxo-6,7-dihydro-2H,8H-pyrano[3,2-g]chromen-7-yl-ester]", "values": [
      {"measurement": "blocking of Prg-LMN A interaction", "setting": "Prg-LMN A binding", "result": "blocking ability of JH4 and JH13 was also demonstrated"},
      {"measurement": "inhibition of association between immobilized progerin and GFP-LMN A (screening)", "setting": "progerin-Lamin A binding", "result": "effective"},
      {"measurement": "inhibitory activity against LMN A-progerin binding", "setting": "LMN A-progerin binding", "result": "block LMN A-progerin binding"},
      {"measurement": "nuclear deformation", "setting": "HGPS cells [3]", "result": "ameliorated the nuclear deformation"}
    ]}
  ]
}
